Structures can show the parent of a compound that is named as a salt. Where two headings read alike, the source gives them in different places.
Test system: Type IV PDE
Assay: PDE IV inhibition: hydrolysis of [3H]-cyclic AMP by isolated Type IV PDE
Assay type: biochemical, bovine
Description: The Type IV PDE is isolated from bovine tracheal smooth muscle using a procedure similar to that previously described by Silver, P. J., Hamel, L. T., Perrone, M. H. Bentley, R. G. Bushover, C. R., Evans, D. B.: Eur. J. Pharmacol. 150:85,1988.(1). Briefly, smooth muscle from bovine trachea is minced and homogenized using a polytron in 10 volumes of an extraction buffer containinhg 10 mM Tris-acetate (pH 7.5), 2 mM magnesium chloride, 1 mM dithiothreitol and 2,000 units/ml of aprotinin. This and all subsequent procedures are performed at 0-4° C. The homogenate is sonicated and then centrifiged at 48,000×g for 30 minutes. The resulting supernatant is applied to a DEAE Trisacryl M column previously equilibrated with sodium acetate and dithiothreitol. After applications of the sample, the column is washed with sodium acetate/dithiothreitol, after which the different forms of PDE are eluted from the column using a linear Tris-HCl/NaCl gradient. Fractions containing Type IV PDE are collected, dialyzed and concentrated to 14% of the original volume. The concentrated fractions are diluted to 50% with ethylene glycol and stored at -20° C.
Enzyme activity is assessed by measuring the hydrolysis of [^3H]-cyclic AMP, as described by Thompson, W. J., Teraski, W. L., Epstein, P. N., Strada, S. J.: Adv. Cyclic Nucleotide Res. 10:69, 1979. The cyclic AMP concentration used in this assay is 0.2 μM, which approximates the Km value. Protein concentration is adjusted to ensure that no more than 15% of the available substrate is hydrolyzed during the incubation period.
All test compounds are dissolved in dimethyl sulfoxide (final concentration of 2.5%). This concentration of dimethyl sulfoxide inhibits enzyme activity by approximately 10%.

[1] = adenines, Table 7, read-out: calc PDE IV IC50
[2] = thioisoguanines, Table 2, cyclic AMP 0.2 μM, read-out: Calc IC50 PDE IV
[3] = adenines, Table 4, cyclic AMP 0.2 μM, read-out: calc PDE IV IC50
[4] = dithioxanthines, Table 5, read-out: IC50 PDE IV

**Q.** How did the IC50 [1] turn out when `CCNc1nc(NCC)n(Cc2ccc(Cl)cc2)c2nc(C(C)C)nc1-2` [3-(4-chlorobenzyl)-2,6-di(ethylamino)-8-isopropyl-3H-purine] was run?
**A.** The IC50 was 11.2 µM.

**Q.** Which IC50 [2] does the source give for `CCCCn1c(=S)nc(NCC)c2[nH]c(C3CC3)nc21` [3-butyl-8-cyclopropyl-3,7-dihydro-6-ethylamino-2-thio-2H-purin-2-one] here?
**A.** The IC50 was 34.9 µM.

**Q.** Which IC50 [1] does the source give for `COc1ccc(Cn2cnc(N)c3nc(C(C)(C)O)nc2-3)cc1OC1CCCC1` [6-amino-3-[(3-cyclopentyloxy-4-methoxy)benzyl]-8-[(1-hydroxy-1-methyl)ethyl]-3H-purine] here?
**A.** The IC50 was 0.25 µM.

**Q.** With `CC(C)(OCc1ccc(F)cc1)c1nc2c(N)ncn(Cc3ccc4c(c3)OCO4)c-2n1` [6-amino-3-(3,4-methylenedioxybenzyl)-8-[1-(4-fluorobenzyloxy)-1-methyl-ethyl]-3H-purine] as the compound, how does the IC50 [1] read?
**A.** Its IC50 is 0.72 µM.

**Q.** How did the IC50 [3] turn out when `CCNc1ncn(CC2CC2)c2nc(C(C)C)nc1-2` [3-cyclopropylmethyl-8-isopropyl-6-ethylamino-3H-purine hydrochloride] was run?
**A.** Its IC50 is 12.7 µM.

**Q.** Which IC50 (read-out: PDE IV I50) does the source give for `CCCn1c(=S)nc(NCc2ccncc2)c2[nH]c(C3CC3)nc21` [8-cyclopropyl-3,7-dihydro-3-propyl-6-(4-pyridyl-methylamino)-2-thio-2H-purin-2-one] here?
**A.** Its IC50 is 0.41 µM.

**Q.** With `COc1ccc(Cn2cnc(N)c3nc(C(C)C)nc2-3)cc1OCCCCO` [6-amino-8-isopropyl-3-[(4-methoxy-3-([(4-hydroxybutoxy))benzyl]-3H-purine] as the compound, how does the IC50 [1] read?
**A.** The IC50 was 4.2 µM.

**Q.** For `CCCn1cnc(NCC)c2nc(C3CC3)nc1-2` [8-cyclopropyl-6-ethylamino-3-propyl-3H-purine hydrochloride], which IC50 [3] is on record?
**A.** The IC50 was 6.31 µM.

**Q.** How did the IC50 [1] turn out when `CCNc1ncn(Cc2ccc(OC)c(OC3CCCC3)c2)c2nc(C(C)(C)O)nc1-2` [3-[(3-cyclopentyloxy-4-methoxy)benzyl]-6-ethylamino-8-[(1-hy] [3-[(3-cyclopentyloxy-4-methoxy)benzyl]-6-ethylamino-8-[(1-hydroxy-1-methyl)ethyl]-3H-purine] was run?
**A.** Its IC50 is 0.85 µM.

**Q.** With `CCn1c(=S)c2[nH]c(C3CC3)nc2n(CC)c1=S` [8-cyclopropyl-3,7-dihydro-1,3-diethyl-2,6-dithio-1H-purin-2,6-dione] as the compound, how does the IC50 (read-out: PDE IV I50) read?
**A.** The IC50 was 0.42 µM.

**Q.** How did the IC50 [3] turn out when `CCCCn1cnc(NCC)c2nc(C3CC3)nc1-2` [3-butyl-8-cyclopropyl-6-ethylamino-3H-purine hydrochloride] was run?
**A.** The IC50 was 5.99 µM.

**Q.** `COc1ccc(CNc2ncn(Cc3ccc(OC)c(OC4CCCC4)c3)c3nc(C(C)C)nc2-3)cc1OC1CCCC1` [3-(3-cyclopentyloxy-4-methoxybenzyl)-6-(3-cyclopentyloxy-4-methoxybenzylamino)-8-isopropyl-3H-purine] was tested. Which IC50 [1] did it give?
**A.** Its IC50 is 1.14 µM.

**Q.** Which IC50 [1] does the source give for `C=C(C)c1nc2c(NCC)ncn(Cc3ccc(OC)c(OC4CCCC4)c3)c-2n1` [3-[(3-cyclopentyloxy-4-methoxy)benzyl]-6-ethylamino-8-(1-methyl-ethenyl)-3H-purine] here?
**A.** Its IC50 is 0.27 µM.

**Q.** `CCNc1ncn(Cc2ccc(OC)c(OCc3cc[n+]([O-])cc3)c2)c2nc(C(C)C)nc1-2` [6-Ethylamino-3-[(3-pyridin-4-yl-methoxy)N-oxide-4-methoxy]-8-isopropyl-3H-purine] was tested. Which IC50 [1] did it give?
**A.** The IC50 was 4.5 µM.

**Q.** Which IC50 [1] does the source give for `CCNc1ncn(Cc2ccc(OC)c(OC3CCCC3)c2)c2nc(C(C)(C)O)nc1-2` [3-[(3-cyclopentyloxy-4-methoxy)benzyl]-8-[(1-methyl-1-hydrox] [3-[(3-cyclopentyloxy-4-methoxy)benzyl]-8-[(1-methyl-1-hydroxy)ethyl]-6-ethylamino-3H-purine] here?
**A.** The IC50 was 3.1 µM.

**Q.** How did the IC50 [3] turn out when `CCCNc1ncn(CC)c2nc(C3CC3)nc1-2` [8-cyclopropyl-3-ethyl-6-propylamino-3H-purine hydrochloride] was run?
**A.** Its IC50 is 15.7 µM.

**Q.** With `CCNc1ncn(CC)c2nc(Cc3ccc(OC)c(OC4CCCC4)c3)nc1-2` [8-(3-Cyclopentyloxy-4-methoxybenzyl)-3-ethyl-6-ethylamino-3H-purine Hydrochloride] as the compound, how does the IC50 [3] read?
**A.** Its IC50 is 4.52 µM.

**Q.** Which IC50 [1] does the source give for `CCNc1ncn(Cc2ccc(OC)c(OC3CCCC3)c2)c2nc(C(C)C)nc1-2` [6-ethylamino-3-[(3-cyclopentyloxy-4-methoxy)benzyl]-8-isopropyl-3H-purine] here?
**A.** Its IC50 is 0.66 µM.

**Q.** Which IC50 [1] does the source give for `COc1ccc(Cn2cnc(NCC(F)(F)F)c3nc(C(C)C)nc2-3)cc1OC1CCCC1` [3-(3-cyclopentyloxy-4-methoxybenzyl)-6-((2,2,2-trifluoroethyl)amino)-8-isopropyl-3H-purine] here?
**A.** The IC50 was 12.8 µM.

**Q.** For `CCNc1nc(Cc2ccc(OC)c(OC)c2)[nH]c2nc(C(C)C)nc1-2` [6-ethylamino-2-(3,4-dimethoxybenzyl)-8-isopropyl-3H-purine], which IC50 [1] is on record?
**A.** The IC50 was 0.31 µM.

**Q.** For `CCCCn1c(=S)[nH]c(=S)c2[nH]c(C(C)C)nc21` [3-butyl-3,7-dihydro-8-(1-methylethyl)-2,6-dithio-1H-purine-2,6-dione], which IC50 [4] is on record?
**A.** Its IC50 is 5.93 µM.

**Q.** With `CCNc1ncn(Cc2ccc(OC)c(O[C@@H]3C[C@H]4CC[C@@H](C3)N4C)c2)c2nc(C(C)C)nc1-2` [6-Ethylamino-3-[(exo-8-methyl-8-azabicyclo(3,2,1)-octan-3-yl-oxy)-4-methoxy-benzy]-8-isopropyl-3-H-purine] as the compound, how does the IC50 [1] read?
**A.** The IC50 was 6.02 µM.

**Q.** Which IC50 [1] does the source give for `COc1ccc(Cn2cnc(N)c3nc(C(C)C)nc2-3)cc1OC1CCCC1` [3-(3-cyclopentyloxy-4-methoxybenzyl)-6-amino-8-isopropyl-3H-purine] here?
**A.** Its IC50 is 0.82 µM.

**Q.** With `S=c1[nH]c(=S)n(CC2CCCCC2)c2nc(C3CC3)[nH]c12` [3-cyclohexylmethyl-8-cyclopropyl-3,7-dihydro-2,6-dithio-1H-purine-2,6-dione] as the compound, how does the IC50 [4] read?
**A.** Its IC50 is 3.03 µM.

**Q.** Which IC50 [1] does the source give for `CCNc1ncn(Cc2ccc(OC)cc2)c2nc(C(C)C)nc1-2` [6-ethylamino-8-isopropyl-3-(4-methoxybenzyl)-3H-purine] here?
**A.** Its IC50 is 1.2 µM.

**Q.** How did the IC50 [4] turn out when `CCCn1c(=S)[nH]c(=S)c2[nH]c(C(C)C)nc21` [3,7-dihydro-8-isopropyl-3-propyl-2,6-dithio-1H-purine-2,6-dione] was run?
**A.** The IC50 was 3.5 µM.

**Q.** With `CCCn1c(=S)nc(N)c2[nH]c(C3CC3)nc21` [6-amino-8-cyclopropyl-3,7-dihydro-3 propyl-2-thio-2H-purin-2-one] as the compound, how does the IC50 [2] read?
**A.** The IC50 was 39.4 µM.

**Q.** With `CCNc1nc(=S)n(Cc2ccccc2)c2nc(C(C)C)[nH]c12` [3-benzyl-6-ethylamino-3,7-dihydro-8-(1-methyl-ethyl)-2-thio-2H-purin-2-one] as the compound, how does the IC50 [2] read?
**A.** Its IC50 is 28.4 µM.

**Q.** `COc1ccc(Cn2cnc(N)c3ncnc2-3)cc1OC1CCCC1` [6-Amino-3-(3-cyclopentyloxy-4-methoxybenzyl)-3H-purine] was tested. Which IC50 [1] did it give?
**A.** The IC50 was 0.31 µM.

**Q.** For `CCCCNc1nc(=S)n(CCC)c2nc(C3CC3)[nH]c12` [6-butylamino-8-cyclopropyl-3,7-dihydro-3-propyl-2-thio-2H-purin-2-one], which IC50 [2] is on record?
**A.** Its IC50 is 24.5 µM.

**Q.** For `CCNc1ncn(CCc2ccc(Cl)cc2)c2nc(C(C)C)nc1-2` [3-{2-(4-chlorophenyl)-ethyl]-6-ethylamino-8-isopropyl-3H-purine], which IC50 [1] is on record?
**A.** Its IC50 is 4.46 µM.

**Q.** Which IC50 [1] does the source give for `CCNc1ncn(Cc2ccc(OC)c(OC3CCC(O)C3)c2)c2nc(C(C)C)nc1-2` (stereo not drawn) [3-(3-((3-hydroxy)cyclopentyloxy)-4-methoxybenzyl)-6-ethylami] [3-(3-((3-hydroxy)cyclopentyloxy)-4-methoxybenzyl)-6-ethylamino-8-isopropyl-3H-purine] here?
**A.** Its IC50 is 1.36 µM.

**Q.** With `CCNc1ncn(CC)c2nc(C3CCCC3)nc1-2` [3-ethyl-8-cyclopentyl-6-ethylamino-3H-purine hydrochloride] as the compound, how does the IC50 [3] read?
**A.** Its IC50 is 28.3 µM.

**Q.** For `COc1ccc(Cn2cnc(N(C)C)c3nc(C(C)C)nc2-3)cc1OC1CCCC1` [3-(3-cyclopentyloxy-4-methoxybenzyl)-6-dimethylamino-8-isopropyl-3H-purine], which IC50 [1] is on record?
**A.** The IC50 was 19.3 µM.

**Q.** Which IC50 [2] does the source give for `CCNc1nc(=S)n(CC)c2nc(C3CC3)[nH]c12` [8-cyclopropyl-3-ethyl-6-ethylamino-3,7-dihydro-2-thio-2H-purin-2-one] here?
**A.** The IC50 was 13.7 µM.

**Q.** For `CCCn1c(=S)[nH]c(=S)c2[nH]c(C3CC3)nc21` [8-cyclopropyl-3,7-dihydro-3-propyl-2,6-dithio-1H-purine-2,6-dione], which IC50 [4] is on record?
**A.** Its IC50 is 64.5 µM.

**Q.** Which IC50 [1] does the source give for `CCCCOc1cc(Cn2cnc(NCC)c3nc(C(C)C)nc2-3)ccc1OC` [6-Ethylamino-3-(3-butoxy-4-methoxy-benzyl)-8-isopropyl-3H purine] here?
**A.** Its IC50 is 1.4 µM.

**Q.** For `CC(C)CCn1c(=S)[nH]c(=S)c2[nH]c(C3CC3)nc21` [8-cyclopropyl-3,7-dihydro-3-(3-methylbutyl)-2,6-dithio-1H-purine-2,6-dione], which IC50 [4] is on record?
**A.** Its IC50 is 6.31 µM.

**Q.** `CCCn1c(=S)nc(NCc2ccccc2)c2[nH]c(C3CC3)nc21` [6-benzylamino-8-(cyclopropyl)-3,7-dihydro-3-propyl-2-thio-2H-purin-2-one hydrochloride] was tested. Which IC50 [2] did it give?
**A.** Its IC50 is 33.6 µM.

**Q.** With `CCNc1ncn(CC2CC2)c2nc(C3CC3)nc1-2` [8-cyclopropyl-3-cyclopropylmethyl-6-ethylamino-3H-purine hydrochloride] as the compound, how does the IC50 [3] read?
**A.** The IC50 was 4.11 µM.

**Q.** How did the IC50 [1] turn out when `CCNc1ncn(Cc2ccc(OC)c(OC3CCC(O)C3)c2)c2nc(C(C)C)nc1-2` (stereo not drawn) [3-[3-(3-hydroxy)cyclopentyloxy)]-4-methoxy)benzyl)-6-ethylam] [3-[3-(3-hydroxy)cyclopentyloxy)]-4-methoxy)benzyl)-6-ethylamino-8-isopropyl-3H-purine] was run?
**A.** The IC50 was 2.28 µM.

**Q.** Which IC50 (read-out: PDE IV I50) does the source give for `CCCn1cnc(NC2CCCC2)c2nc(C3CC3)nc1-2` [6-Cyclopentylamino-8-cyclopropyl-3-propyl-3H-purine Hydrochloride] here?
**A.** The IC50 was 0.03 µM.
